Some results are limits rather than exact numbers.

The target of experiment [1] is T1, recombinant human CRTH2 receptor (Homo sapiens, UniProt Q9Y5Y4).
T1 construct: expressed in transfected cells
T1 sequence (Q9Y5Y4 1-395): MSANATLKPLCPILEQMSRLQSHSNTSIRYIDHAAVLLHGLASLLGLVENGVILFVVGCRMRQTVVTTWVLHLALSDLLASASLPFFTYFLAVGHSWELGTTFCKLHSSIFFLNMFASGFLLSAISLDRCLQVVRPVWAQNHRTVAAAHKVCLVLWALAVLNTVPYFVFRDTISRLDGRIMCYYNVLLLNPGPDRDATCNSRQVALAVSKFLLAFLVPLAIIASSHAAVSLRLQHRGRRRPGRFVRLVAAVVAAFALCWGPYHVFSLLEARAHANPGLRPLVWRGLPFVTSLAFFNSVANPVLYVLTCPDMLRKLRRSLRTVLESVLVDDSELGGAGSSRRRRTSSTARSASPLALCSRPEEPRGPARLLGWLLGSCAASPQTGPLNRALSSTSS
The experiment is described as follows: GTPγS binding assay. In kind it is biochemical. The conditions noted are these: +HSA; read-out: hDP2 GTPγS μM (+HSA). The procedure:
The ability of a compound to inhibit binding of GTP to DP2 is assessed via a membrane GTPγS assay. CHO cells stably expressing the recombinant human CRTH2 receptor are resuspended in 10 mM Hepes, 7.4 containing 1 mM DTT, lysed and centrifuged at 75,000×g to pellet the membranes. The membranes are resuspended in 10 mM Hepes, 7.4 containing 1 mM DTT and 10% glycerol. Membranes (˜12.5 μg per well) are incubated in 96-well plates with 0.05 nM [^35S]-GTPγS, 80 nM PGD2, 5 μM GDP, and test compound in Assay Buffer (50 mM Hepes, pH 7.4, 100 mM NaCl, 5 mM MgCl2 and 0.2% human serum albumin) for 60 minutes at 30° C. The reactions are terminated by rapid filtration through Whatman GF/B glass fibre filter plates. The filter plates are washed 3 times with 1 ml cold Assay Buffer and dried. Scintillant is then added to the plates and the radioactivity retained on the filters is determined on a Packard TopCount (Perkin Elmer). Specific binding is determined as total radioactive binding minus non-specific binding in the absence of the ligand (80 nM PGD2). IC50s were determined using Graphpad prism analysis of drug titration curves.
(GTPγS resists hydrolysis and so accumulates on activated G proteins.)

A further experiment deals with T2, human DP2 receptor (Homo sapiens, UniProt Q9Y5Y4).
T2 construct: expressed in transfected cells
T2 sequence (Q9Y5Y4 1-395): T1 sequence (Q9Y5Y4 1-395)
The experiment is described as follows: DP2/CRTH2 radioligand binding assay using [3H]PGD2. The conditions noted are these: hDP2 (CRTH2) binding assay. The method, then:
The ability of a compound to bind to the human DP2 receptor is assessed via a radioligand binding assay using [^3H]PGD2. HEK293 cells stably expressing recombinant human DP2 are resuspended in 10 mM Hepes, 7.4 containing 1 mM DTT, lysed and centrifuged at 75,000×g to pellet the membranes. The membranes are resuspended in 10 mM Hepes, 7.4 containing 1 mM DTT and 10% glycerol to approximately 5 mg protein/ml. Membranes (2-10 μg protein/well) are incubated in 96-well plates with 1 nM [^3H]PGD2 and test compound in Assay Buffer (50 mM Hepes, 10 mM MnCl2, 1 mM EDTA, plus or minus 0.2% human serum albumin, pH 7.4) for 60 minutes at room temperature. The reactions are terminated by rapid filtration through Whatman GF/C glass fibre filter plates. The filter plates were pre-soaked in 0.33% polythylenimine for 30 minutes at room temperature then washed in Wash Buffer (50 mM Hepes, 0.5 M NaCl pH 7.4) prior to harvesting. After harvesting, the filter plates are washed 3 times with 1 ml cold Wash Buffer then dried. Scintillant is then added to the plates and the radioactivity retained on the filters is determined on a Packard TopCount (Perkin Elmer). Specific binding is determined as total radioactive binding minus non-specific binding in the presence of 10 μM PGD2. IC50s were determined using GraphPad prism analysis of drug titration curves.

For a further experiment, the target named is T3, human DP1 receptor (Homo sapiens, UniProt Q13258).
T3 construct: tissue Biological Specialty Corporation; host or cells: human platelets, membranes
T3 sequence (Q13258 1-359): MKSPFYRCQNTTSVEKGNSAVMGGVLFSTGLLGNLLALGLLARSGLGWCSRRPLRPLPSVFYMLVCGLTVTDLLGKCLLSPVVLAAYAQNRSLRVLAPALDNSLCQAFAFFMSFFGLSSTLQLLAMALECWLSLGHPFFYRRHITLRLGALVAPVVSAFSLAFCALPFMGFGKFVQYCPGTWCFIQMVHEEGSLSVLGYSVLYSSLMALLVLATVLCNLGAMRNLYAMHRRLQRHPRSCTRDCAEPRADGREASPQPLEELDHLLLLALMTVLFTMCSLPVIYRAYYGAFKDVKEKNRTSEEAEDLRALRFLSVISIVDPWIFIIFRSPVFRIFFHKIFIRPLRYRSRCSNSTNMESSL
As to the kind of experiment: DP1 radioligand binding assay using [3H]BWA868C. Particulars: hDP1 binding. The procedure: The ability of a compound to bind to the human DP1 receptor was evaluated via a radioligand membrane binding assay using the DP1 selective synthetic ligand [^3H]BW A868C. Packed human platelets (Biological Specialty Corporation), were resuspended in 6 volumes of Hepes/HBSS buffer (10 mM Hepes, 1 mM DTT in Hanks Balanced Salt Solution (HBSS)), lysed and centrifuged at 75,000×g to pellet the membranes. Membranes were resuspended in Hepes/HBSS buffer to approximately 12 mg protein/ml. Membranes (20 μg protein/well) are incubated in 96-well plates with 2 nM [^3H]BWA868C and test compound in Assay Buffer (50 mM Hepes, 10 mM MnCl2, 1 mM EDTA, plus or minus 0.2% human serum albumin, pH 7.4) for 60 minutes at room temperature. The reactions are terminated by rapid filtration through Whatman GF/C glass fibre filter plates. The filter plates were pre-soaked in 0.33% polethylenimine for 30 minutes at room temperature then washed in Wash Buffer (50 mM Hepes, 0.5 M NaCl pH 7.4) prior to harvesting. After harvesting, the filter plates are washed 3 times with 1 ml cold Wash Buffer then dried. Scintillant is then added to the plates and the radioactivity retained on the filters is determined on a Packard TopCount (Perkin Elmer). Specific binding is determined as total radioactive binding minus non-specific binding in the presence of 10 μM BW A868C. IC50s were determined using GraphPad prism analysis of drug titration curves.

In the case of `COc1cccc(-c2ccc(Oc3cc(CC(=O)O)ccc3OC)c(CN3C(=O)O[C@H](c4ccccc4)[C@@H]3C)c2)c1` [Compound 1-38, {4-Methoxy-3-[3′-methoxy-3-((4S,5R)-4-methyl-2-oxo-5-phenyl-oxazolidin-3-ylmethyl)-biphenyl-4-yloxy]-phenyl}-acetic acid], the figures for the IC50 (in experiment [1]; at human DP2 receptor; at human DP1 receptor) were 0.3 to 1 µM, less than 300 nM and greater than 1000 nM, respectively.
The corresponding values for `C[C@H]1[C@@H](c2ccccc2)OC(=O)N1Cc1cc(Br)ccc1Oc1cc(CC(=O)O)ccc1Cl` [Compound 1-29, {3-[4-Bromo-2-((4S,5R)-4-methyl-2-oxo-5-phenyl-oxazolidin-3-ylmethyl)-phenoxy]-4-chloro-phenyl}-acetic acid] are greater than 1 µM, less than 300 nM and greater than 1000 nM.
As for `CCNC(=O)c1ccc(Oc2cccc(CC(=O)O)c2)c(CN2CCOC2=O)c1` [Compound 1-6, {3-[4-Ethylcarbamoyl-2-(2-oxo-oxazolidin-3-ylmethyl)-phenoxy]-phenyl}-acetic acid], the figures for the IC50 (in experiment [1]; at human DP2 receptor; at human DP1 receptor) were 0.3 to 1 µM, 300 to 1000 nM and greater than 1000 nM, respectively.
The corresponding values for `O=C(O)Cc1cccc(Oc2ccc(-c3ccccc3)cc2CN2CCOC2=O)c1` [Compound 1-7, {3-[3-(2-Oxo-oxazolidin-3-ylmethyl)-biphenyl-4-yloxy]-phenyl}-acetic acid] are 0.3 to 1 µM, less than 300 nM and greater than 1000 nM.
On to `COc1ccc(C(C)C(=O)O)cc1Oc1ccc(C(F)(F)F)cc1CN1C(=O)O[C@H](c2ccccc2)[C@@H]1C` (stereo partly drawn) [Compound 1-44, 2-{4-Methoxy-3-[2-((4S,5R)-4-methyl-2-oxo-5-phenyl-oxazolidin-3-ylmethyl)-4-trifluoromethyl-phenoxy]-phenyl}-propionic acid], for which the IC50 in experiment [1] is 0.3 to 1 µM; at human DP2 receptor it was less than 300 nM; at human DP1 receptor, greater than 1000 nM.
Consider `C[C@@H]1[C@H](c2ccccc2)OC(=O)N1Cc1cc(Br)ccc1Oc1cc(CC(=O)O)ccc1Cl` [Compound 1-58, {3-[4-Bromo-2-((4R,5S)-4-methyl-2-oxo-5-phenyl-oxazolidin-3-ylmethyl)-phenoxy]-4-chloro-phenyl}-acetic acid], for which the results for the IC50 (in experiment [1]; at human DP2 receptor; at human DP1 receptor) were 0.3 to 1 µM, less than 300 nM and greater than 1000 nM, respectively.
Consider `C[C@@H]1[C@H](c2ccccc2)OC(=O)N1Cc1cc(Br)ccc1Oc1cc(F)cc(CC(=O)O)c1` [Compound 1-55, {3-[4-Bromo-2-((4R,5S)-4-methyl-2-oxo-5-phenyl-oxazolidin-3-ylmethyl)-phenoxy]-5-fluoro-phenyl}-acetic acid], for which the IC50 in experiment [1] is less than 0.3 µM; at human DP2 receptor, less than 300 nM; on human DP1 receptor, greater than 1000 nM.
With `O=C(O)Cc1cccc(Oc2ccc(Br)cc2CN2CCOC2=O)c1` [Compound 1-3, {3-[4-Bromo-2-(2-oxo-oxazolidin-3-ylmethyl)-phenoxy]-phenyl}-acetic acid], the IC50 in experiment [1] is 0.3 to 1 µM; on human DP2 receptor it was less than 300 nM; on human DP1 receptor, greater than 1000 nM.
For `Cn1cc(-c2ccc(Oc3cccc(CC(=O)O)c3)c(CN3CCOC3=O)c2)cn1` [Compound 1-84, {3-[4-(1-Methyl-1H-pyrazol-4-yl)-2-(2-oxo-oxazolidin-3-ylmethyl)-phenoxy]-phenyl}-acetic acid], the IC50 is 0.3 to 1 µM in experiment [1], 300 to 1000 nM on human DP2 receptor and greater than 1000 nM on human DP1 receptor.
For `COc1ccc(CC(=O)O)cc1Oc1ccc(Br)cc1CN1C(=O)O[C@@H](c2ccc(Cl)cc2)[C@H]1C` [Compound 1-62], the IC50 in experiment [1] is 0.3 to 1 µM; at human DP2 receptor, less than 300 nM; on human DP1 receptor it was greater than 1000 nM.
The corresponding values for `C[C@H]1[C@@H](c2ccccc2)OC(=O)N1Cc1cc(Br)ccc1Oc1cc(Cl)cc(CC(=O)O)c1` [Compound 1-27, {3-[4-Bromo-2-((4S,5R)-4-methyl-2-oxo-5-phenyl-oxazolidin-3-ylmethyl)-phenoxy]-5-chloro-phenyl}-acetic acid] are less than 0.3 µM, less than 300 nM and less than 300 nM.
`COc1ccc(CC(=O)O)cc1Oc1ccc(-c2cn[nH]c2)cc1CN1C(=O)O[C@H](c2ccccc2)[C@@H]1C` [Compound 1-42, {4-Methoxy-3-[2-((4S,5R)-4-methyl-2-oxo-5-phenyl-oxazolidin-3-ylmethyl)-4-(1H-pyrazol-4-yl)-phenoxy]-phenyl}-acetic acid]: the results for the IC50 (in experiment [1]; at human DP2 receptor; on human DP1 receptor) were less than 0.3 µM, less than 300 nM and greater than 1000 nM, respectively.
With `CCNC(=O)c1ccc(Oc2cc(CC(=O)O)ccc2OC)c(CN2C(=O)O[C@@H](c3ccccc3)[C@H]2C)c1` [Compound 1-65, {3-[4-Ethylcarbamoyl-2-((4R,5S)-4-methyl-2-oxo-5-phenyl-oxazolidin-3-ylmethyl)-phenoxy]-4-methoxy-phenyl}-acetic acid], the IC50 in experiment [1] is 0.3 to 1 µM; at human DP2 receptor, less than 300 nM; on human DP1 receptor, greater than 1000 nM.
In the case of `COc1ccc(CC(=O)O)cc1Oc1ccc(Cl)cc1CN1C(=O)O[C@@H](c2ccccc2)[C@H]1C` [Compound 1-59, {3-[4-Chloro-2-((4R,5S)-4-methyl-2-oxo-5-phenyl-oxazolidin-3-ylmethyl)-phenoxy]-4-methoxy-phenyl}-acetic acid], the IC50 in experiment [1] is less than 0.3 µM; at human DP2 receptor, less than 300 nM; at human DP1 receptor, greater than 1000 nM.
As to `COc1ccc(CC(=O)O)cc1Oc1ccc(Br)cc1CN1C(=O)O[C@@H](c2ccccc2)[C@H]1C` [Compound 1-60, {3-[4-Bromo-2-((4R,5S)-4-methyl-2-oxo-5-phenyl-oxazolidin-3-ylmethyl)-phenoxy]-4-methoxy-phenyl}-acetic acid], the IC50 in experiment [1] is less than 0.3 µM; on human DP2 receptor, less than 300 nM; on human DP1 receptor it was greater than 1000 nM.
Regarding `COc1ccc(CC(=O)O)cc1Oc1ccc(Br)cc1CN1CCOC1=O` [Compound 1-14, {3-[4-Bromo-2-(2-oxo-oxazolidin-3-ylmethyl)-phenoxy]-4-methoxy-phenyl}-acetic acid], the IC50 in experiment [1] was less than 0.3 µM; at human DP2 receptor, less than 300 nM; on human DP1 receptor, greater than 1000 nM.

(Values after patent US8242145B2, “Cyclic diaryl ether compounds as antagonists of prostaglandin D2 receptors” (Panmira Pharmaceuticals, LLC, priority 2008, dated 2012).)
